Results published in patent US20210038587A1, “METHODS AND COMPOSITIONS FOR TREATING NON-ERK MAPK PATHWAY INHIBITOR-RESISTANT CANCERS” (BIOMED VALLEY DISCOVERIES, INC., priority 2013, published 2021).
Where two headings read alike, the source gives them in different places. Blank lines part the entries; values can stand above or below the compound they belong to.

Key:
[1] = system: dose-escalated A375 cells; experiment: Proliferation assay (Alamar Blue, 96 h) in dose-escalated A375 cell lines; assay type: cell-based, human; conditions: for IC50: Homo sapiens; for Fold Change of IC50: BRAFi- + MEKi-resistant versus parental A375
[2] = system: A375 cells; experiment: Dose escalation study (acquisition of resistance); assay type: cell-based, human; conditions: progressively increasing concentrations
[3] = system: A375 xenografts; experiment: A375 xenografts, BVD-523 in combination with dabrafenib; assay type: in vivo, mice; conditions: 100 mg/kg QD
Description: (§1) For measurement of antitumor activity in A375 xenografts, xenografts were initiated with A375 cells maintained by serial subcutaneous transplantation in female athymic nude mice. Each test mouse received an A375 tumor fragment (1 mm^3) implanted subcutaneously in the right flank. Once tumors reached target size (80-120 mm^3), animals were randomized into treatment and control groups, and drug treatment was initiated.
(§2) Combination dosing was stopped on Day 20 to monitor for tumor regrowth. Animals were monitored individually and euthanized when each tumor reached an endpoint volume of 2000 mm^3, or the final day (Day 45), whichever came first, and median time to endpoint (TTE) calculated. The combination was also evaluated in an upstaged A375 model where larger tumors in the range 228-1008 mm^3 were evaluated. Here, mice were randomized into 1 group (Group 1) of 14 and 4 groups (Groups 2-5) of 20. […] Tumors were measured twice weekly. Combination dosing was stopped on Day 42 to monitor for tumor regrowth through study end (Day 60). Treatment outcome was determined from % TGD, defined as the percent increase in median TTE for treated versus control mice, with differences between groups analyzed via log rank survival analysis. […] Mice were also monitored for CR and PR responses. Animals with a CR at the end of the study were additionally classified as TFS.

[4] = system: upstaged A375 xenografts; experiment: Upstaged A375 xenograft model, BVD-523 in combination with dabrafenib; assay type: in vivo, mice; conditions: 50 mg/kg BID; 11 evaluable mice
Procedure: as §2

[5] = system: patient-derived xenograft (AT052C); experiment: Patient-derived xenograft from vemurafenib-refractory BRAFV600E melanoma; assay type: in vivo, mice
[6] = system: BRAF^V600-mutant melanoma; conditions: cited from earlier work
[7] = system: A375 cells; experiment: Proliferation assay (Alamar Blue, 96 h) in parental A375 cells; assay type: cell-based; conditions: Homo sapiens, A-375, Parental A375
[8] = system: RKO Parental; experiment: Single agent proliferation assay (CellTiter-Glo, 96 h); assay type: cell-based
Procedure: (§3) For assessment of drug sensitivity in cell-line models of acquired resistance, drug sensitivity of dose-escalated A375 cells and isogenic RKO cells was assessed in 96-hour proliferation assays. […] For the A375 assays Alamar blue (ThermoFisher) 10% (v/v) was added and incubated for 4 h, and fluorescent product was then detected using a BMG FLUOstar.
(§4) Compounds were prepared from DMSO stocks to give the desired final concentrations. The final DMSO concentration was constant at 0.1%. […] CellTiter-Glo® reagent (Promega, Madison, Wis.) was added according to manufacturer's instructions and luminescence detected using the BMG FLUOstar plate reader (BMG Labtech, Ortenberg, Germany).

[9] = system: RKO MEK1 (Q56P/+) Clone 1; experiment: as above; assay type: cell-based; conditions: RKO MEK1 Q56P/+ Cl.1
Procedure: as §3
(§5) RKO MEK1 Q56P Isogenic cells were produced by Horizon Discovery (Cambridge, UK; #HD 106-019) using a recombinant AAV-mediated gene targeting strategy. Briefly, rAAV virus was generated following transfection of the appropriate targeting vector and helper vectors in HEK293T cells, purified using an AAV purification kit (Virapur, San Diego, USA) and titrated using qPCR. Parental homozygous RKO cells (homozygous wild type for MEK1) were then infected with rAAV virus and clones that had integrated the selection cassette were identified by G418 selection and expanded. Correctly targeted clones that were heterozygous for knock-in of the MEK1 Q56P point mutation into a single allele were identified by PCR and sequencing.
as §4

[10] = system: RKO MEK1 (Q56P/+) Clone 2; experiment: as above; assay type: cell-based; conditions: RKO MEK1 Q56P/+ Cl.2
Procedure: as §3, §5, §4

[11] = system: SW48 cell lines heterozygous for knock-in of mutant KRAS; experiment: Proliferation assay in isogenic SW48 lines with knock-in of mutant KRAS (Alamar blue, 96 h); assay type: cell-based; conditions: versus control SW48
Procedure: Isogenic SW48 cell lines heterozygous for knock-in of mutant KRAS (De Roock et al 2010, JAMA, 304, 1812-1820) were obtained from Horizon Discovery (Catalogue numbers; HD 103-002, HD 103-006 HD 103-007, HD 103-009, HD 103-010, HD 103-011, HD 103-013). […] Viability was then assessed using Alamar blue.

[12] = system: A375 xenografts; experiment: Antitumor activity in A375 xenografts, monotherapy; assay type: in vivo, mice
Procedure: as §1
Oral temozolomide was administered as a positive reference compound at 75 or 175 mg/kg once daily (QD) for a total of five treatments (QD×5).

[13] = A-375, BRAFi- + MEKi-resistant (dabrafenib and trametinib combination-resistant) A375 population, read-out: IC50
[14] = A-375, Month 1, Dab/Tram-escalated line, read-out: Relative IC50
[15] = A-375, Month 1, Tram/523-escalated line, read-out: Relative IC50
[16] = A-375, Month 2, Dab/Tram-escalated line, read-out: Relative IC50
[17] = A-375, Month 2, Tram/523-escalated line, read-out: Relative IC50
[18] = A-375, Month 3, Dab/Tram-escalated line, read-out: Relative IC50
[19] = A-375, Month 3, Tram/523-escalated line, read-out: Relative IC50

Structure (SMILES): CC(C)(C)c1nc(-c2cccc(NS(=O)(=O)c3c(F)cccc3F)c2F)c(-c2ccnc(N)n2)s1 [Dabrafenib]
IC50 ([1]; A-375, BRAFi- + MEKi-resistant (dabrafenib and trametinib combination-resistant) A375 population): 17.9 nM
IC50 ([1]; A-375, read-out: Relative IC50, Month 1, BVD-523-escalated line): 8 nM
IC50 ([1]; A-375, read-out: Relative IC50, Month 1, Dab/523-escalated line): 68 nM
IC50 ([1]; A-375, read-out: Relative IC50, Month 1, Dab/Tram-escalated line): 58 nM
IC50 ([1]; A-375, read-out: Relative IC50, Month 1, Tram-escalated line): 29 nM
IC50 ([1]; A-375, read-out: Relative IC50, Month 1, Tram/523-escalated line): 11 nM
IC50 ([1]; A-375, read-out: Relative IC50, Month 2, BVD-523-escalated line): 697 nM
IC50 ([1]; A-375, read-out: Relative IC50, Month 2, Dab-escalated line): 11.5 nM
IC50 ([1]; A-375, read-out: Relative IC50, Month 2, Dab/523-escalated line): 218 nM
IC50 ([1]; A-375, read-out: Relative IC50, Month 2, Dab/Tram-escalated line): 256 nM
IC50 ([1]; A-375, read-out: Relative IC50, Month 2, Tram/523-escalated line): 68 nM
IC50 ([1]; A-375, read-out: Relative IC50, Month 3, BVD-523-escalated line): 18.4 nM
IC50 ([1]; A-375, read-out: Relative IC50, Month 3, Dab-escalated line): 2.5 nM
IC50 ([1]; A-375, read-out: Relative IC50, Month 3, Dab/523-escalated line): 337 nM
IC50 ([1]; A-375, read-out: Relative IC50, Month 3, Dab/Tram-escalated line): 17.9 nM
IC50 ([1]; A-375, read-out: Relative IC50, Month 3, Tram/523-escalated line): 73 nM
emergence of drug-resistant cell lines [2]: readily obtained
PR [3]: 1
CRs [4]: 5
PRs [4]: 5
TFS [4]: 3
TGI ([5]; 50 mg/kg BID): 22%
activity in patient-derived line ST052C ([5]; dabrafenib 50 mg/kg BID, BVD-523 100 mg/kg BID): acquired cross-resistance
overall survival ([6]; Long et al. 2015, BRAF^V600E/K): 18.7 months
overall response ([6]; Long et al. 2015): 53%
progression-free survival (PFS) ([6]; Long et al. 2015): 8.8 months
response rate ([6]; phase III, single agent versus dacarbazine): approximately 50%

IC50 [1, 13]: 3.5 nM
IC50 [1, 14]: 3.5 nM
IC50 [1, 15]: 3.4 nM
IC50 [1, 16]: 4.7 nM
IC50 [1, 17]: 8.9 nM
IC50 [1, 18]: 4.7 nM
IC50 [1, 19]: 8.9 nM
Structure (SMILES): CC(=O)O[C@H]1C(=O)[C@@]2(C)[C@H]([C@H](OC(=O)c3ccccc3)[C@]3(O)C[C@H](OC(=O)[C@H](O)[C@@H](NC(=O)c4ccccc4)c4ccccc4)C(C)=C1C3(C)C)[C@]1(OC(C)=O)CO[C@@H]1C[C@@H]2O [Paclitaxel]
IC50 [7]: 1.9 nM
Fold Change of IC50 [1]: +1.8 fold
IC50 [8]: 2 nM
IC50 [9]: 2 nM
IC50 [10]: 2 nM
sensitivity after knock-in of KRAS mutant alleles [11]: unaltered

IC50 [1, 13]: 2.7 nM
IC50 [1, 14]: 3.9 nM
IC50 [1, 15]: 2.5 nM
IC50 [1, 16]: 12.6 nM
IC50 [1, 17]: 4.6 nM
IC50 [1, 18]: 2.7 nM
IC50 [1, 19]: 11.2 nM
Structure (SMILES): CC(=O)Nc1cccc(-n2c(=O)n(C3CC3)c(=O)c3c(Nc4ccc(I)cc4F)n(C)c(=O)c(C)c32)c1 [Trametinib]
IC50 [7]: 0.2 nM
Fold Change of IC50 [1]: +13.5 fold
Fold Change of IC50 ([1]; listed as trametinib): 13.5 fold
IC50 [8]: 6 nM
IC50 [9]: 93 nM
IC50 [10]: 80 nM

Structure (SMILES): Cn1nnc2c(C(N)=O)ncn2c1=O [temozolomide]
tumor growth inhibition (TGI) ([12]; 75 mg/kg QD×5): 34%
tumor growth inhibition (TGI) ([12]; 175 mg/kg QD×5): 78%
